Laboratory results as given in patent US7026527B2, “Plant methionine synthase gene and methods for increasing the methionine content of the seeds of plants” (priority 1995, dated 2006).

Tests used:
[1] = tested on: E. coli strain Gif106M1 transformed with pBT436; format: cell-based; conditions: M9 media with arginine, isoleucine, ampicillin
Description: To establish that the cloned lysC gene was functional, pBT436 was transformed into E. coli strain Gif106M1 (E. coli Genetic Stock Center strain CGSC-5074) which has mutations in each of the three E. coli AK genes [Theze et al., J. Bacteriol., (1974), 117, 133-143|. This strain lacks all AK activity and therefore requires diaminopimelate (a precursor to lysine which is also essential for cell wall biosynthesis), threonine and methionine.
M9 media [see Sambrook et al. (1989) Molecular Cloning: A Laboratory Manual, Cold Spring Harbor Laboratory Press| supplemented with the arginine and isoleucine, required for Gif106M1 growth, and ampicillin, to maintain selection for the pBT436 plasmid, was used. […] This property of pBT436-transforned Gif106M1 was used to select for mutations in lysC that encoded lysine-insensitive AKIII.

[2] = molecular target: T1, AKIII encoded by mutant lysC genes (lysine-insensitive) (Escherichia coli, UniProt P08660, G401A/T352I); format: biochemical, E. coli; conditions: 15 mM lysine; three mutant lysC genes (M2, M3, M4)
T1 construct: made in house; host or cells: E. coli Gif106M1 carrying mutated pBT436 plasmids
Description: (§1) Single colonies of Gif106M1 transformed with pBT436 were picked and resuspended in 200 μL of a mixture of 100 μL 1% lysine plus 100 μL of M9 media. The entire cell suspension containing 10^7-10^8 cells was spread on a petri dish containing M9 media supplemented with the arginine, isoleucine, and ampicillin. Sixteen petri dishes were thus prepared. From 1 to 20 colonies appeared on 11 of the 16 petri dishes. One or two (if available) colonies were picked and retested for lysine resistance and from this nine lysine-resistant clones were obtained. Plasmid DNA was prepared from eight of these and re-transformed into Gif106M1 to determine whether the lysine resistance determinant was plasmid-borne. Six of the eight plasmid DNAs yielded lysine-resistant colonies. Three of these six carried lysC genes encoding AKIII that was uninhibited by 15 mM lysine, whereas wild type AKIII is 50% inhibited by 0.3-0.4 mM lysine and >90% inhibited by 1 mM lysine.
The sequences of the three mutant lysC genes that encoded lysine-insensitive AK each differed from the wild type sequence by a single nucleotide, resulting in a single amino acid substitution in the protein. […] Thus, either of these single amino acid substitutions is sufficient to render the AKIII enzyme insensitive to lysine inhibition. […]
(§2) Spin for 2 min in eppendorf centrifuge tube. Read OD at […].

wild type AKIII [3] = molecular target: T2, wild type AKIII (Escherichia coli, UniProt P08660, G401A); test: Lysine inhibition of wild type AKIII aspartokinase activity; format: biochemical, E. coli; conditions: read-out: inhibition of AKIII
T2 construct: made in house; host or cells: E. coli Gif106M1 (lacks all AK activity) transformed with pBT436
Description: as §1
(§3) Assay mix (for 12×1.0 mL or 48×0.25 mL assays): • 2.5 mL H2O • 2.0 mL 4M KOH • 2.0 mL 4M NH2OH—HCl • 1.0 mL 1M Tris-HCl pH 8.0 • 0.5 mL 0.2M ATP (121 mg/ml in 0.2M NaOH) • 50 μL 1M MgSO4
(§4) Each 1.5 mL eppendorf assay tube contains:
(§5) Assay tubes are incubated at 30° C. for 30-60 min […];
as §2

wild type AKIII [4] = molecular target: T3, wild type AKIII (Escherichia coli, UniProt P08660); test: as above; format: biochemical, E. coli
T3 construct: made in house; host or cells: E. coli Gif106M1 (lacks all AK activity) transformed with pBT436
Description: as §1, §3, §4, §5, §2

AKII-HDHII (AK activity) = molecular target: T4, AKII-HDHII (AK activity) (Escherichia coli, UniProt P00562); test: AK activity of AKII-HDHII extract (clone 5), inhibition by pathway end-products; format: biochemical, E. coli; conditions: 30 mM end-product; extract from clone 5
T4 construct: The primers also add a Kpn I site immediately following the translation stop codon; made in house; host or cells: E. coli BL21(DE3), pBT430-derived T7 vector; supernatant of sonicated cells (clone 5, plasmid pBT718)
Description: These four were then assayed for AK activity. AK activity was assayed as shown below:
as §3
pH of assay mix should be 7-8
as §4, §5, §2
Two extracts also had high levels of AK enzyme activity. These two extracts were then tested for inhibition of AK or HDH activity by the pathway end-products, lys, thr and met.

[5] = molecular target: T5, AKII-HDHII (HDH activity) (Escherichia coli, UniProt P00562); test: HDH activity of AKII-HDHII extract (clone 5), inhibition by pathway end-products; format: biochemical, E. coli; conditions: 30 mM end-product; extract from clone 5
T5 construct: The primers also add a Kpn I site immediately following the translation stop codon; made in house; host or cells: E. coli BL21(DE3), pBT430-derived T7 vector; supernatant of sonicated cells (clone 5, plasmid pBT718)
T5 sequence (P00562 other isoform, or with tags, fused parts or gaps): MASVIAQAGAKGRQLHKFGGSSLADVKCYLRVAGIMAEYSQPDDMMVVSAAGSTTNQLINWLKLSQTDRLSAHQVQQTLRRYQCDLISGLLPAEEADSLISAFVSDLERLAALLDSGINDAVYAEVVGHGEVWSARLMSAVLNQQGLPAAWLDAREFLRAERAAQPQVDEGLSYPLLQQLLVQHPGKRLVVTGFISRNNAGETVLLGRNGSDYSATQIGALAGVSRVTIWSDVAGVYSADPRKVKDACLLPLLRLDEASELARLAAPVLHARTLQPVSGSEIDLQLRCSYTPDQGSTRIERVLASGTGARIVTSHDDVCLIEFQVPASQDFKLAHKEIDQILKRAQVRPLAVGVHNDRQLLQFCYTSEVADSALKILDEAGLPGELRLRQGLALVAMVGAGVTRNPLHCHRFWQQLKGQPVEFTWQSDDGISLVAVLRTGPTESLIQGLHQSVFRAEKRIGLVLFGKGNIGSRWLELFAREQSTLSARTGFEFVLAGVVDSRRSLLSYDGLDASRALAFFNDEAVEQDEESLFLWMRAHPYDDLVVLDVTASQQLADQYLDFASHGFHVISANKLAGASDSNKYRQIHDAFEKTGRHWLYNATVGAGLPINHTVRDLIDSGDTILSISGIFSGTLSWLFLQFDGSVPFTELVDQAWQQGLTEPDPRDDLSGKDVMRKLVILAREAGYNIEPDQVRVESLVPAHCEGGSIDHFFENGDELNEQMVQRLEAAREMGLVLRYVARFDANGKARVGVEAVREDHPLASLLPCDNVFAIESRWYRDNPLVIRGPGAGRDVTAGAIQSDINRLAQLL
Description: The cells were collected by centririgation and resuspended in 1/25th the original culture volume in 50 mM NaCl; 50 mM Tris-Cl, pH 7.5; 1 mM EDTA, and frozen at −20° C., thawed at 37° C. and sonicated, in an ice-water bath, to lyse the cells. The lysate was centrifuged at 4° C. for 5 min at 12,000 rpm. The supernatant was removed and the pellet was resuspended in the above buffer. The supernatant fractions were assayed for HDH enzyme activities to identify clones expressing functional proteins. HDH activity was assayed as shown below: HDH ASSAY
Make Mixture of above reagents with amounts multiplied by number of assays. Use 0.9 mL of mix for 1 mL assay; 180 μL of mix for 0.2 mL assay in microtiter dish
to ½ the assay mix; remaining ½ lacks ASA to serve as blank
Add enzyme extract last to start reaction. Incubate at ˜30° C.; monitor NADPH oxidation at 340 nM. 1 unit oxidizes 1 μmol NADPH/min at 30° C. in the 1 mL reaction.

T4 sequence (P00562 other isoform, or with tags, fused parts or gaps): as above
T2 sequence (P08660 2-449 G401A): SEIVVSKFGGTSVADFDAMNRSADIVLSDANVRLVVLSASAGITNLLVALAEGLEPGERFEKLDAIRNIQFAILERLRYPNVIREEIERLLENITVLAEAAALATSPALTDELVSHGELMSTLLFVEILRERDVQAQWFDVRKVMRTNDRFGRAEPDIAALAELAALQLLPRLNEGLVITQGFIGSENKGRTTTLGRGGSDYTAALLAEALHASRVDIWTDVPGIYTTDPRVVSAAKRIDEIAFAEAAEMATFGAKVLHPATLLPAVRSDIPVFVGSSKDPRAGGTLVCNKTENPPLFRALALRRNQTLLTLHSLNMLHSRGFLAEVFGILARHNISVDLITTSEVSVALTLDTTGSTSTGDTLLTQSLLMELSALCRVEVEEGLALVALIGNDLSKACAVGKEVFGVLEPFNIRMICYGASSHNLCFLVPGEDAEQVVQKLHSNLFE
T3 sequence (P08660 2-449 G401A): as above
T1 sequence (P08660 2-449 T352I/G401A): as the sequence (P08660 2-449 G401A) above, with T351I counted along it

Compound: NC(CCCC(N)C(=O)O)C(=O)O (centres unmarked) [diaminopimelate]
- concentration in growth medium that inhibits growth [1]: approximately 0.2 mM

Compound: NCCCC[C@H](N)C(=O)O [lysine]
- inhibition of mutant AKIII [2]: uninhibited
- inhibition at 1000 µM (wild type AKIII [3]): > 90%
- IC50 (wild type AKIII [4]): 300 to 400 µM
- inhibition of AK activity (AKII-HDHII (AK activity)): Neither the AK nor the HDH activity of the extract from clone 5 was inhibited
- inhibition of HDH activity [5]: Neither the AK nor the HDH activity of the extract from clone 5 was inhibited
- concentration in growth medium that inhibits growth [1]: approximately 0.2 mM

Compound: CSCC[C@H](N)C(=O)O [methionine]
- inhibition of AK activity (AKII-HDHII (AK activity)): Neither the AK nor the HDH activity of the extract from clone 5 was inhibited
- inhibition of HDH activity [5]: Neither the AK nor the HDH activity of the extract from clone 5 was inhibited

Compound: C[C@@H](O)[C@H](N)C(=O)O [threonine]
- inhibition of AK activity (AKII-HDHII (AK activity)): Neither the AK nor the HDH activity of the extract from clone 5 was inhibited
- inhibition of HDH activity [5]: Neither the AK nor the HDH activity of the extract from clone 5 was inhibited
